Laboratory results reported in PubChem BioAssay AID1845212 (Molecular Pharmacology Branch, DTP, NCI, 2023).
Several values for one entry are separate records, joined by “and”; a condition that tells them apart may be missing. Equal entries are not always repeated.

System: NCI-H719 tumor spheroids, viability
Assay: Anticancer human tumor NCI-H719 cell line growth inhibition;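 also: spheroids exposed to compounds for seven days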;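 as to viability, T/C: percent viability relative to DMSO vehicle control as 100%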
Details: spheroids with HUVEC and MSC; for viability, T/C: stronger effect = lower value; active = viability on the fitted dose curve at most 10% of control; inactive = the rest
How it was run: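 Complex spheroids of malignant cells with endothelial cells and mesenchymal stem cells; agents alone or combined, from near clinical Cmax (or 10 microM if unknown) down in half-log steps, 0.25% DMSO final.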

[1] = curve of first compound, second compound 0.003 µM
[2] = second compound 0.003 µM, first compound 0.0949 µM
[3] = second compound 0.003 µM, first compound 0.3 µM
[4] = second compound 0.003 µM, first compound 0.949 µM
[5] = second compound 0.003 µM, first compound 3 µM

O=C(c1cc(Cc2n[nH]c(=O)c3ccccc23)ccc1F)N1CCN(C(=O)C2CC2)CC1 + COc1cc2c(cc1O)CCNC21CSC2c3c(OC(C)=O)c(C)c4c(c3C(COC1=O)N1C(O)C3Cc5cc(C)c(OC)c(O)c5C(C21)N3C)OCO4
inactive: viability, T/C (second compound 30 pM, first compound 0.0949 µM) 67% | viability, T/C (second compound 30 pM, first compound 0.3 µM) 48.7% | viability, T/C (second compound 30 pM, first compound 0.949 µM) 41.7% | viability, T/C (second compound 30 pM, first compound 3 µM) 22.3% | viability, T/C (second compound 30 pM, first compound 9.49 µM) 12.5% | viability, T/C (second compound 94.9 pM, first compound 0.0949 µM) 23.4% | viability, T/C (second compound 94.9 pM, first compound 0.3 µM) 13.7% | viability, T/C (second compound 94.9 pM, first compound 0.949 µM) 14% | viability, T/C (second compound 94.9 pM, first compound 3 µM) 13.3% | viability, T/C (second compound 94.9 pM, first compound 9.49 µM) 13.3% | viability, T/C (second compound 0.0003 µM, first compound 0.0949 µM) 10.9%
< 94.9 nM: IC50 (curve of first compound, second compound 94.9 pM) | IC50 (curve of first compound, second compound 0.0003 µM) | IC50 (curve of first compound, second compound 0.000949 µM) | IC50 [1]
356 nM: IC50 (curve of first compound, second compound 30 pM)
active: viability, T/C (second compound 30 pM, first compound 30 µM) 8.97% | viability, T/C (second compound 94.9 pM, first compound 30 µM) 6.02% | viability, T/C (second compound 0.0003 µM, first compound 0.3 µM) 8.6% | viability, T/C (second compound 0.0003 µM, first compound 0.949 µM) 11.6% | viability, T/C (second compound 0.0003 µM, first compound 3 µM) 11.6% | viability, T/C (second compound 0.0003 µM, first compound 9.49 µM) 8.94% | viability, T/C (second compound 0.0003 µM, first compound 30 µM) 6.85% | viability, T/C (second compound 0.000949 µM, first compound 0.0949 µM) 6.97% | viability, T/C (second compound 0.000949 µM, first compound 0.3 µM) 8.6% | viability, T/C (second compound 0.000949 µM, first compound 0.949 µM) 8.56% | viability, T/C (second compound 0.000949 µM, first compound 3 µM) 7.26% | viability, T/C (second compound 0.000949 µM, first compound 9.49 µM) 5.7% | viability, T/C (second compound 0.000949 µM, first compound 30 µM) 4.86% | viability, T/C [2] 0.61% | viability, T/C [3] 0.45% | viability, T/C [4] 0.63% | viability, T/C [5] 0.7% | viability, T/C (second compound 0.003 µM, first compound 9.49 µM) 0.69% | viability, T/C (second compound 0.003 µM, first compound 30 µM) 1.37%

CC[C@@]1(O)C(=O)OCc2c1cc1n(c2=O)Cc2cc3c(CN(C)C)c(O)ccc3nc2-1
inactive: viability, T/C (compound 0.003 µM) 44.5% [middle of 10 runs]
3.67 nM and 3.31 nM and < 3 nM: IC50 (compound alone, run of 12/16/2019)
< 3 nM and 3.17 nM: IC50 (compound alone, run of 11/07/2019)
active: viability, T/C (compound 0.00949 µM) 6.14% [middle of 10 runs] | viability, T/C (compound 0.03 µM) 5.56% [middle of 10 runs] | viability, T/C (compound 0.0949 µM) 6.96% [middle of 10 runs] | viability, T/C (compound 0.3 µM) 7.47% [middle of 10 runs]

Cc1sc2c(c1C)C(c1ccc(Cl)cc1)=NC(CC(=O)Nc1ccc(O)cc1)c1nnc(C)n1-2 (configuration not stated) + CC[C@@]1(O)C(=O)OCc2c1cc1n(c2=O)Cc2cc3c(CN(C)C)c(O)ccc3nc2-1
inactive: viability, T/C (second compound 0.003 µM, first compound 0.00949 µM) 42.6% | viability, T/C (second compound 0.003 µM, first compound 0.03 µM) 31.5% | viability, T/C [2] 9.86%
active: viability, T/C [3] 4.37% | viability, T/C [4] 2.57% | viability, T/C [5] 1.57% | viability, T/C (second compound 0.00949 µM, first compound 0.00949 µM) 5.64% | viability, T/C (second compound 0.00949 µM, first compound 0.03 µM) 5.14% | viability, T/C (second compound 0.00949 µM, first compound 0.0949 µM) 5% | viability, T/C (second compound 0.00949 µM, first compound 0.3 µM) 4.27% | viability, T/C (second compound 0.00949 µM, first compound 0.949 µM) 2.51% | viability, T/C (second compound 0.00949 µM, first compound 3 µM) 2.02% | viability, T/C (second compound 0.03 µM, first compound 0.00949 µM) 4.76% | viability, T/C (second compound 0.03 µM, first compound 0.03 µM) 4.99% | viability, T/C (second compound 0.03 µM, first compound 0.0949 µM) 4.72% | viability, T/C (second compound 0.03 µM, first compound 0.3 µM) 3.7% | viability, T/C (second compound 0.03 µM, first compound 0.949 µM) 2.76% | viability, T/C (second compound 0.03 µM, first compound 3 µM) 1.87% | viability, T/C (second compound 0.0949 µM, first compound 0.00949 µM) 4.97% | viability, T/C (second compound 0.0949 µM, first compound 0.03 µM) 4.42% | viability, T/C (second compound 0.0949 µM, first compound 0.0949 µM) 4.02% | viability, T/C (second compound 0.0949 µM, first compound 0.3 µM) 3.47% | viability, T/C (second compound 0.0949 µM, first compound 0.949 µM) 2.28% | viability, T/C (second compound 0.0949 µM, first compound 3 µM) 1.46% | viability, T/C (second compound 0.3 µM, first compound 0.00949 µM) 5.22% | viability, T/C (second compound 0.3 µM, first compound 0.03 µM) 4.7% | viability, T/C (second compound 0.3 µM, first compound 0.0949 µM) 3.68% | viability, T/C (second compound 0.3 µM, first compound 0.3 µM) 2.55% | viability, T/C (second compound 0.3 µM, first compound 0.949 µM) 1.67% | viability, T/C (second compound 0.3 µM, first compound 3 µM) 0.66%
< 9.49 nM: IC50 [1] | IC50 (curve of first compound, second compound 0.00949 µM) | IC50 (curve of first compound, second compound 0.03 µM) | IC50 (curve of first compound, second compound 0.0949 µM) | IC50 (curve of first compound, second compound 0.3 µM)
